From patent US6218379A, “Tricyclic carbacephems” (Hoffmann-la Roche Inc., priority 1996, dated 2001)
In brackets after ≈: the same amount, converted by molar mass. Counter-ions that a name gives are not always drawn.

Tests used:
[1] = system: Staphylococcus aureus 887; assay: Antibacterial activity in vitro (MIC) against Staphylococcus aureus 887; assay type: cell-based; settings: read-out: MIC S. aureus 887
Method: (§1) The minimum inhibitory concentration in vitro (MIC in μg/ml) of a compound of formula I against Citrobacter freundii 1982 and Staphylococcus aureus 887 is measured and compiled in Table 2.

[2] = system: Citrobacter freundii 1982; assay: Antibacterial activity in vitro (MIC) against Citrobacter freundii 1982; assay type: cell-based; settings: read-out: MIC C. freundii 1982
Method: as §1

| SMILES | MIC [1] | MIC [2] |
| --- | --- | --- |
| O=C(O)C1=C(/C=C/c2ccccn2)C[C@@H]2CN[C@@H]3C(=O)N1[C@H]23 [Example 50, (E)-(1aS,3aR,6bR)-1-Oxo-5-(2-pyridin-2-yl-vinyl)-1a,2,3,3a,4,6b-hexahydro-1H-2,6a-diaza-cyclobut[cd]indene-6-carboxylic acid trifluoroacetate (1:1.58)] | 64 µg/mL | 64 µg/mL |
| CC(=O)N1C[C@H]2CC(/C=C/c3cccc[n+]3CC(N)=O)=C(C(=O)[O-])N3C(=O)[C@@H]1[C@@H]23 [Example 72, (E)-(1aS,3aR,6bR)-2-Acetyl-5-[2-(1-carbamoylmethyl-pyridin-1-ium-2-yl)-vinyl]-1-oxo-1a,2,3,3a,4,6b-hexahydro-1H-2,6a-diaza-cyclobut[cd]indene-6-carboxylate] | 64 µg/mL (≈ 161 µM) | 64 µg/mL (≈ 161 µM) |
| CC(=O)N1C[C@H]2CC(/C=C/c3cc4ccccc4[n+](CC(N)=O)c3)=C(C(=O)[O-])N3C(=O)[C@@H]1[C@@H]23 [Example 68, (E)-(1aS,3aR,6bR)-2-Acetyl-5-[2-(1-carbamoylmethyl-quinolin-1-ium-3-yl)-vinyl]-1-oxo-1a,2,3,3a,4,6b-hexahydro-1H-2,6a-diaza-cyclobut[cd]indene-6-carboxylate] | 0.5 µg/mL (≈ 1.12 µM) | 16 µg/mL (≈ 35.8 µM) |
| O=C(O)C1=C(/C=C/c2ccccc2)C[C@@H]2CN[C@@H]3C(=O)N1[C@H]23 [Example 49, (E)-(1aS,3aR,6bR)-1-Oxo-5-styryl-1a,2,3,3a,4,6b-hexahydro-1H-2,6a-diaza-cyclobut[cd]indene-6-carboxylic acid trifluoroacetate] | 8 µg/mL | 64 µg/mL |
| CC(=O)N1C[C@H]2CC(/C=C3\CCN(c4ccc[n+](Cc5ccccc5)c4)C3=O)=C(C(=O)[O-])N3C(=O)[C@@H]1[C@@H]23 [Example 39, (E)-(1aS,3aR,6bR)-2-Acetyl-5-[1-(1-benzyl-pyridin-1-ium-3-yl)-2-oxo-pyrrolidin-3-ylidenemethyl]-1-oxo-1a,2,3,3a,4,6b-hexahydro-1H-2,6a-diaza-cyclobut[cd]indene-6-carboxylate acid] | 2 µg/mL (≈ 4.01 µM) | 4 µg/mL (≈ 8.02 µM) |
| CC(=O)N1C[C@H]2CC(/C=C3\CCN(c4ccc[n+](CC(N)=O)c4)C3=O)=C(C(=O)[O-])N3C(=O)[C@@H]1[C@@H]23 [Example 40, (E)-(1aS,3aR,6bR)-2-Acetyl-5-[1-(1-carbamoylmethyl-pyridin-1-ium-3-yl)-2-oxo-pyrrolidin-3-ylidenemethyl]-1-oxo-1a,2,3,3a,4,6b-hexahydro-1H-2,6a-diaza-cyclobut[cd]indene-6-carboxylate] | 2 µg/mL (≈ 4.3 µM) | 4 µg/mL (≈ 8.59 µM) |
| O=C(O)C1=C(/C=C2\CCN(Cc3ccc([N+](=O)[O-])cc3)C2=O)C[C@@H]2CN[C@@H]3C(=O)N1[C@H]23 [Example 15, (E)-(1aS,3aR,6bR)-1-Oxo-5-[2-oxo-1-(4-nitrobenzyl)-pyrrolidin-3-ylidenemethyl]-1a,2,3,3a,4,6b-hexahydro-1H-2,6a-diaza-cyclobut[cd]indene-6-carboxylic acid trifluoroacetate (1:0.77)] | 8 µg/mL | 32 µg/mL |
| O=C(O)C1=C(/C=C2\CCN(CC(F)(F)F)C2=O)C[C@@H]2CN[C@@H]3C(=O)N1[C@H]23 [Example 14, (E)-(1aS,3aR,6bR)-1-Oxo-5-[2-oxo-1-(2,2,2-trifluoro-ethyl)-pyrrolidin-3-ylidenemethyl]-1a,2,3,3a,4,6b-hexahydro-1H-2,6a-diaza-cyclobut[cd]indene-6-carboxylic acid trifluoroacetate (1:1)] | 16 µg/mL | 8 µg/mL |
| CC(=O)N1C[C@H]2CC(/C=C3\CCN(Cc4ccc([N+](=O)[O-])cc4)C3=O)=C(C(=O)O)N3C(=O)[C@@H]1[C@@H]23 [Example 26, (E)-(1aS,3aR,6bR)-2-Acetyl-1-oxo-5-[2-oxo-1-(4-nitro-benzyl)-pyrrolidin-3-ylidenemethyl]-1a,2,3,3a,4,6b-hexahydro-1H-2,6a-diaza-cyclobut[cd]indene-6-carboxylic acid sodium salt (1:1)] | 2 µg/mL | 8 µg/mL |
| O=C(O)C1=C(/C=C/c2ccc(O)cc2)C[C@@H]2CN[C@@H]3C(=O)N1[C@H]23 [Example 52, (E)-(1aS,3aR,6bR)-1-Oxo-5-[2-(4-hydroxy-phenyl)-vinyl]-1a,2,3,3a,4,6b-hexahydro-1H-2,6a-diaza-cyclobut[cd]indene-6-carboxylic acid trifluoroacetate (1:0.83)] | 4 µg/mL | 64 µg/mL |
| CC(=O)N1C[C@H]2CC(/C=C/c3ccc[n+](Cc4ccccc4)c3)=C(C(=O)[O-])N3C(=O)[C@@H]1[C@@H]23 [Example 66, (E)-(1aS,3aR,6bR)-2-Acetyl-5-[2-(1-benzyl-pyridin-1-ium-3-yl)-vinyl]-1-oxo-1a,2,3,3a,4,6b-hexahydro-1H-2,6a-diaza-cyclobut[cd]indene-6-carboxylate] | 0.25 µg/mL (≈ 0.582 µM) | 8 µg/mL (≈ 18.6 µM) |
| CC(=O)N1C[C@H]2CC(/C=C/c3ccc[n+](CC(N)=O)c3)=C(C(=O)[O-])N3C(=O)[C@@H]1[C@@H]23 [Example 67, (E)-(1aS,3aR,6bR)-2-Acetyl-5-[2-(1-carbamoylmethyl-pyridin-1-ium-3-yl)-vinyl]-1-oxo-1a,2,3,3a,4,6b-hexahydro-1H-2,6a-diaza-cyclobut[cd]indene-6-carboxylate] | 0.25 µg/mL (≈ 0.631 µM) | 16 µg/mL (≈ 40.4 µM) |
| CC(=O)N1C[C@H]2CC(/C=C/c3ccc[n+](C/C=C/c4ccccc4)c3)=C(C(=O)[O-])N3C(=O)[C@@H]1[C@@H]23 [Example 69, (1aS,3aR,6bR)-2-Acetyl-1-oxo-5-[(E)-2-[1-[(E)-3-phenylallyl]-pyridin-1-ium-3-yl)-vinyl]-1a,2,3,3a,4,6b-hexahydro-1H-2,6a-diaza-cyclobut[cd]indene-6-carboxylate] | 0.25 µg/mL (≈ 0.549 µM) | 32 µg/mL (≈ 70.3 µM) |
| CC(=O)N1C[C@H]2CC(/C=C/c3cnc4ccccc4c3)=C(C(=O)O)N3C(=O)[C@@H]1[C@@H]23 [Example 63, (E)-(1aS,3aR,6bR)-2-Acetyl-1-oxo-5-(2-quinolin-3-yl-vinyl)-1a,2,3,3a,4,6b-hexahydro-1H-2,6a-diaza-cyclobut[cd]indene-6-carboxylic acid sodium salt (1:1)] | 0.5 µg/mL | 64 µg/mL |
| O=C(O)C1=C(/C=C/c2cccnc2)C[C@@H]2CN[C@@H]3C(=O)N1[C@H]23 [Example 53, (E)-(1aS,3aR,6bR)-1-Oxo-5-(2-pyridin-3-yl-vinyl)-1a,2,3,3a,4,6b-hexahydro-1H-2,6a-diaza-cyclobut[cd]indene-6-carboxylic acid trifluoroacetate (1:1.5)] | 2 µg/mL | 64 µg/mL |
| O=C(O)C1=C(/C=C/c2ccccn2)C[C@@H]2CN(C(=O)C(F)(F)F)[C@@H]3C(=O)N1[C@H]23 [Example 64, (E)-(1aS,3aR,6bR)-1-Oxo-5-(2-pyridin-2-yl-vinyl)-2-trifluoroacetyl-1a,2,3,3a,4,6b-hexahydro-1H-2,6a-diaza-cyclobut[cd]indene-6-carboxylic acid sodium salt (1:1)] | 2 µg/mL | 32 µg/mL |

Next, values leading:

| MIC [1] | MIC [2] | SMILES |
| --- | --- | --- |
| 4 µg/mL | 1 µg/mL | CC(=O)N1C[C@H]2CC(/C=C3\CCN(CC(F)(F)F)C3=O)=C(C(=O)O)N3C(=O)[C@@H]1[C@@H]23 [Example 25, (E)-(1aS,3aR,6bR)-2-Acetyl-1-oxo-5-[2-oxo-1-(2,2,2-trifluoroethyl)-pyrrolidin-3-ylidenemethyl]-1a,2,3,3a,4,6b-hexahydro-1H-2,6a-diaza-cyclobut[cd]indene-6-carboxylic acid sodium salt (1:1)] |
| 1 µg/mL | 4 µg/mL | CC(=O)N1C[C@H]2CC(/C=C3\CCN(c4cccc([N+](=O)[O-])c4)C3=O)=C(C(=O)O)N3C(=O)[C@@H]1[C@@H]23 [Example 30, (E)-(1aS,3aR,6bR)-2-Acetyl-1-oxo-5-[1-(3-nitrophenyl)-2-oxo-pyrrolidin-3-ylidenemethyl]-1a,2,3,3a,4,6b-hexahydro-1H-2,6a-diaza-cyclobut[cd]indene-6-carboxylic acid sodium salt (1:1)] |
| 4 µg/mL | 16 µg/mL | O=C(O)C1=C(/C=C2\CCN(c3cccnc3)C2=O)C[C@@H]2CN(C(=O)C(F)(F)F)[C@@H]3C(=O)N1[C@H]23 [Example 38, (E)-(1aS,3aR,6bR)-1-Oxo-5-[2-oxo-1-pyridin-3-yl-pyrrolidin-3-ylidenemethyl]-2-trifluoroacetyl-1a,2,3,3a,4,6b-hexahydro-1H-2,6a-diaza-cyclobut[cd]indene-6-carboxylic acid sodium salt (1:1)] |
| 1 µg/mL | 1 µg/mL | CC(=O)N1C[C@H]2CC(/C=C3\CCN(c4ccc(O)cc4)C3=O)=C(C(=O)O)N3C(=O)[C@@H]1[C@@H]23 [Example 24, (E)-(1aS,3aR,6bR)-2-Acetyl-1-oxo-5-[2-oxo-1-(4-hydroxyphenyl)-pyrrolidin-3-ylidenemethyl]-1a,2,3,3a,4,6b-hexahydro-1H-2,6a-diaza-cyclobut[cd]indene-6-carboxylic acid sodium salt (1:1)] |
| 4 µg/mL | 32 µg/mL | O=C(O)C1=C(/C=C2\CCN(Cc3cccs3)C2=O)C[C@@H]2CN(C(=O)C(F)(F)F)[C@@H]3C(=O)N1[C@H]23 [Example 35, (E)-(1aS,3aR,6bR)-1-Oxo-5-[2-oxo-1-(thiophen-2-yl-methyl)-pyrrolidin-3-ylidenemethyl]-2-trifluoroacetyl-1a,2,3,3a,4,6b-hexahydro-1H-2,6a-diaza-cyclobut[cd]indene-6-carboxylic acid sodium salt (1:1)] |
| 2 µg/mL | 8 µg/mL | CC(=O)N1C[C@H]2CC(/C=C3\CCN(c4ccccc4)C3=O)=C(C(=O)O)N3C(=O)[C@@H]1[C@@H]23 [Example 31, (E)-(1aS,3aR,6bR)-2-Acetyl-1-oxo-5-[2-oxo-1-phenyl-pyrrolidin-3-ylidenemethyl]-1a,2,3,3a,4,6b-hexahydro-1H-2,6a-diaza-cyclobut[cd]indene-6-carboxylic acid sodium salt (1:1)] |
| 2 µg/mL | 1 µg/mL | CC(=O)N1C[C@H]2CC(/C=C3\CCN(c4cccnc4)C3=O)=C(C(=O)O)N3C(=O)[C@@H]1[C@@H]23 [Example 33, (E)-(1aS,3aR,6bR)-2-Acetyl-1-oxo-5-[2-oxo-1-pyridin-3-yl-pyrrolidin-3-ylidenemethyl]-1a,2,3,3a,4,6b-hexahydro-1H-2,6a-diaza-cyclobut[cd]indene-6-carboxylic acid sodium salt (1:1)] |
